Laboratory results from publication doi:10.1101/2023.12.06.570349v1 (biorxiv, 2023).

What was measured:
H3R-445 [1] = target: T1, H3R-445 (Homo sapiens, UniProt Q9Y5N1); test: biochemical
H3R-413 [2] = target: T2, H3R-413 (Homo sapiens, UniProt Q9Y5N1, DEL274-305); test: biochemical
H3R-365 [3] = target: T3, H3R-365 (Homo sapiens, UniProt Q9Y5N1); test: biochemical
H3R-415 [4] = target: T4, H3R-415 (Homo sapiens, UniProt Q9Y5N1); test: biochemical
H3R-453 [5] = target: T5, H3R-453 (Homo sapiens, UniProt Q9Y5N1); conditions: […] Tris-HCl pH […] °C, […] h; labelled compound
H3R-373 [6] = target: T6, H3R-373 (Homo sapiens, UniProt Q9Y5N1, INS445KMKKKTCL); conditions: […] Tris-HCl pH […] °C, […] h; labelled compound
H3R-415 [7] = target: T4, H3R-415; test: biochemical; remark: listed apart in the source
H3R-373 [8] = target: T6, H3R-373; test: cell-based; set-up: species or system HEK293-EPAC stably expressing H3R isoform; conditions: HEK293-EPAC stably expressing H3R isoform, read-out: H3R-373 α
H3R-453 [9] = target: T5, H3R-453; test: cell-based; set-up: species or system HEK293-EPAC stably expressing H3R isoform; conditions: HEK293-EPAC stably expressing H3R isoform, read-out: H3R-453 α
H3R-373 [10] = target: T6, H3R-373
H3R-365 [11] = target: T3, H3R-365; test: biochemical; remark: listed apart in the source
H3R-445 [12] = target: T1, H3R-445; test: cell-based; set-up: species or system HEK293-EPAC stably expressing H3R isoform; conditions: HEK293-EPAC stably expressing H3R isoform, read-out: H3R-445 α
H3R-365 [13] = target: T3, H3R-365; test: cell-based; set-up: species or system HEK293-EPAC stably expressing H3R isoform; conditions: HEK293-EPAC stably expressing H3R isoform, read-out: H3R-365 α
H3R-415 [14] = target: T4, H3R-415; test: cell-based; set-up: species or system HEK293-EPAC stably expressing H3R isoform; conditions: HEK293-EPAC stably expressing H3R isoform, read-out: H3R-415 α
H3R-445 [15] = target: T1, H3R-445; test: biochemical; remark: listed apart in the source
H3R-413 [16] = target: T2, H3R-413; test: cell-based; set-up: species or system HEK293-EPAC stably expressing H3R isoform; conditions: HEK293-EPAC stably expressing H3R isoform, read-out: H3R-413 α
H3R-413 [17] = target: T2, H3R-413; test: biochemical; remark: listed apart in the source
H3R-413 [18] = target: T2, H3R-413; test: cell-based; set-up: species or system HEK293-EPAC stably expressing H3R isoform
H3R-453 [19] = target: T5, H3R-453

Structure (SMILES) | Kd (H3R-445 [1]) [nM] | Kd (H3R-413 [2]) [nM] | Kd (H3R-365 [3]) [nM] | Kd (H3R-415 [4]) [nM] | pKD (H3R-453 [5]) | pKD (H3R-373 [6]) | Ki (H3R-415 [7]) [nM] | Emax (H3R-373 [8]) [%] | Emax (H3R-453 [9]) [%] | Ki (H3R-373 [10]) [nM] | Ki (H3R-365 [11]) [nM] | Emax (H3R-445 [12]) [%] | Emax (H3R-365 [13]) [%] | Emax (H3R-415 [14]) [%] | Ki (H3R-445 [15]) [nM] | Emax (H3R-413 [16]) [%] | Ki (H3R-413 [17]) [nM] | EC50 (H3R-413 [18]) [nM] | Ki (H3R-453 [19]) [nM]
CNCCc1c[nH]cn1 [[3H]NAMH] | 1.26 | 1.26 | 0.501 | 1.26 | 9.0 ± 0.1 | 9.6 ± 0.1 |  |  |  |  |  |  |  |  |  |  |  |  | 
NCCCCCc1c[nH]cn1 [impentamine, 5-(3H-imidazol-4-yl)pentan-1-amine] |  |  |  |  |  |  | 3.98 | 70 ± 10 | 50 ± 10 | 1.58 | 2 | 60 ± 20 | 100 ± 30 | 50 ± 10 | 2.51 | 50 ± 10 | 3.98 | 6.31 | 3.16
